Several values for one entry are separate records, joined by “and”; a condition that tells them apart may be missing. Identical values can stand only once. Like-named read-outs stand apart in the source and are kept apart here.
Columns and labels:
hDUT [1] = target: T1, hDUT (Homo sapiens, UniProt P33316); test: Thermofluor stability assay; format: binding; set-up: His tag (N); made in house; conditions: for Tm (5 mM Mg^2+): 5 mM MgCl2
T1 sequence (P33316 1-164 isoform P33316-2): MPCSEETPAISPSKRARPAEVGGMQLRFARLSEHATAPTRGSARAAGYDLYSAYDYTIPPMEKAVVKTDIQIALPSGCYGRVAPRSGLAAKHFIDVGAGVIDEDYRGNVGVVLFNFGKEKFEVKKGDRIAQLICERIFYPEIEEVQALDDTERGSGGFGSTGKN

mtDUT [2] = target: T2, mtDUT (Mycobacterium tuberculosis, UniProt P9WNS5); conditions: cited from earlier work
hDUT [3] = target: T1, hDUT; set-up: His tag (N); made in house; method as in PMID 18519027, PMID 17848562; conditions: dUTP hydrolysis; 5 mM Mg^2+, no EDTA; reported previously ref 20, 51; cited from earlier work
hDUT [4] = target: T1, hDUT; test: Isothermal titration calorimetry (ITC); format: binding; set-up: His tag (N); made in house
mtDUT [5] = target: T2, mtDUT; test: biochemical; format: binding; set-up: His tag (N); made in house
hDUT [6] = target: T1, hDUT; set-up: His tag (N); made in house; method as in PMID 20601405, PMID 17880943, PMID 17848562; conditions: same titration in the presence of Mg^2+; cited from earlier work
[7] = set-up: method as in PMID 9299023; conditions: smallest reported value for the ATP:Mg^2+ complex; read-out: dissociation constant; cited from earlier work
hDUT [8] = target: T1, hDUT; conditions: no Mg^2+; for kcat: dUTP hydrolysis, 20 °C, pH 7.5
Protocol: (§1) Continuous pH indicator-based assays were performed to measure enzyme activity at 20 °C as described in [26]. Briefly, 1 µM protein was used in a buffer pH 7.5 containing 1 mM HEPES, 100 mM KCl and 40 µM phenol red. A Specord 200 (Analytic, Jena, Germany) spectrophotometer and 10-mm-path length cuvettes were used, and absorbance was recorded at 559 nm. Initial velocity was determined from the first 10% of the progress curve. […] Data fitting was accomplished using OriginPro 7.5 (OriginLab Corp, Northampton, MA, USA).

mtDUT [9] = target: T2, mtDUT
Protocol: as §1

[10] = EDTA titrated with Mg^2+, pH 7.5, 293 K
EcMutT [11] = target: T3, EcMutT (Escherichia coli, UniProt P08337); conditions: no Mg^2+, pH 7.5, 293 K
Taq polymerase [12] = target: T4, Taq polymerase (Thermus aquaticus, UniProt P19821); conditions: no Mg^2+, pH 7.5, 293 K
EcMutT [13] = target: T3, EcMutT; test: biochemical
Taq polymerase [14] = target: T4, Taq polymerase; test: biochemical
[15] = hDUT complexed with ligand (100 µM dUPNPP or 1 mM dUMP)
[16] = apparent, no Mg^2+, pH 7.5, 293 K, average and SD
[17] = fit of the titration shown in Figure S1A, no Mg^2+
[18] = no Mg^2+, pH 7.5, 293 K, average and SD
[19] = fit of the titration shown in Figure S1B, no Mg^2+

T4 sequence (P19821 whole entry): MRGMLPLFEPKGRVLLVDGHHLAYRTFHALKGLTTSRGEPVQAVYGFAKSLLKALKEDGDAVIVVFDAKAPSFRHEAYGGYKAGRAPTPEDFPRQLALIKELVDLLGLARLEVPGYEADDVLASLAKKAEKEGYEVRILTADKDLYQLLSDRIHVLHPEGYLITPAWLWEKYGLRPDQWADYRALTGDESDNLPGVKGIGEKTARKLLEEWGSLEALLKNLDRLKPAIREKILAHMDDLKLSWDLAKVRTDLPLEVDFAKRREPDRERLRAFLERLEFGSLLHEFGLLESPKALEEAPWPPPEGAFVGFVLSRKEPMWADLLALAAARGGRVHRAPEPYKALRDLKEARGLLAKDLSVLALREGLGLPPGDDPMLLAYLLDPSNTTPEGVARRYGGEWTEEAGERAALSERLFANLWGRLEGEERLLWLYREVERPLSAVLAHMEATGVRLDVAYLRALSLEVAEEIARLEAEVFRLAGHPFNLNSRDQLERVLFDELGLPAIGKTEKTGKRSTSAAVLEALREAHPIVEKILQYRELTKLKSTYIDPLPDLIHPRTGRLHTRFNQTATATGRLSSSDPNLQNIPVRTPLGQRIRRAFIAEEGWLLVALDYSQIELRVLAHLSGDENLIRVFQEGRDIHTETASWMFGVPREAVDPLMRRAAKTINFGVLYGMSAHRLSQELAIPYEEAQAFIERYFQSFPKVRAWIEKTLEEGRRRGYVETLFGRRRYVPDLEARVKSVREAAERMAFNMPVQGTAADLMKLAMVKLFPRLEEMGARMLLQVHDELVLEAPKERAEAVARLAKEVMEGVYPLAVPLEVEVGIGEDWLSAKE
T3 sequence (P08337 whole entry): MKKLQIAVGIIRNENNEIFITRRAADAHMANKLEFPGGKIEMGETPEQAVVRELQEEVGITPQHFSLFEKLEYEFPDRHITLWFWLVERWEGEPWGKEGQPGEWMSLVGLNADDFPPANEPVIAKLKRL
T2 sequence (P9WNS5 whole entry): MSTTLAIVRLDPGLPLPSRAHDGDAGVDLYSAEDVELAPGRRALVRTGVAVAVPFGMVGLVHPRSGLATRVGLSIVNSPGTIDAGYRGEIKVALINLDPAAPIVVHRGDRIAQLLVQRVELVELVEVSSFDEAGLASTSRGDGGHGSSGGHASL

O=c1ccn([C@H]2C[C@H](O)[C@@H](COP(=O)(O)O)O2)c(=O)[nH]1 [dUMP]
Tm (100 µM EDTA) (hDUT [1]; [15]): 58.7 ± 0.1 °C
Tm (5 mM Mg^2+) (hDUT [1]; [15]): 62.3 ± 0.1 °C
Tm (No Mg^2+, no EDTA) (hDUT [1]; [15]): 59.7 ± 0.1 °C

[Mg+2] [Mg^2+]
kcat (mtDUT [2]): 2.39 ± 0.16 s⁻¹
Km (mtDUT [2]; dUTP hydrolysis, 5 mM Mg^2+, no EDTA, reported previously ref 20, 51): 1.72 ± 0.51 µM
Tm (5 mM Mg^2+) (hDUT [1]; apo hDUT): 59.5 ± 0.3 °C
increase of melting temperature in the presence of Mg^2+ (hDUT [1]; apo hDUT, 5 mM Mg^2+ vs no Mg^2+): 0.9 °C
Km (hDUT [3]): 2.26 ± 0.33 µM
kcat (hDUT [3]): 5.27 ± 0.24 s⁻¹

O=c1ccn([C@H]2C[C@H](O)[C@@H](COP(=O)(O)NP(=O)(O)OP(=O)(O)O)O2)c(=O)[nH]1 [dUPNPP]
Tm (100 µM EDTA) (hDUT [1]; [15]): 58.3 ± 0.1 °C
Tm (5 mM Mg^2+) (hDUT [1]; [15]): 63.9 ± 0.3 °C
Tm (No Mg^2+, no EDTA) (hDUT [1]; [15]): 59.1 ± 0.2 °C
Kd (hDUT [4]; [16]): 44000 nM and 43900 nM
Kd (hDUT [4]; [17]): 54000 nM
n (stoichiometry) (hDUT [4]; [17]): 0.41
ΔG (hDUT [4]; [17]): –5.7 kcal/mol
ΔH (hDUT [4]; [17]): –19.9 kcal/mol
–TΔS (hDUT [4]; [17]): 14.1 kcal/mol
ΔG (hDUT [4]; [18]): -5.9 ± 0.2 kcal/mol
ΔH (hDUT [4]; [18]): -17.4 ± 3.6 kcal/mol
−TΔS (hDUT [4]; [18]): 11.5 ± 3.7 kcal/mol
n (stoichiometry) (mtDUT [5]): 1
ΔG (mtDUT [5]; [19]): –6.2 kcal/mol
ΔH (mtDUT [5]; [19]): –4.4 kcal/mol
–TΔS (mtDUT [5]; [19]): –1.8 kcal/mol
ΔH (mtDUT [5]; [18]): -4.5 ± 0.2 kcal/mol
−TΔS (mtDUT [5]; [18]): -2.1 ± 0.4 kcal/mol
Kd (hDUT [6]): 2000 to 7000 nM

Nc1ncnc2c1ncn2[C@@H]1O[C@H](COP(=O)(O)OP(=O)(O)OP(=O)(O)O)[C@@H](O)[C@H]1O [ATP]
Kd [7]: 46300 nM

O=C(O)CN(CCN(CC(=O)O)CC(=O)O)CC(=O)O [EDTA, ethylene diamine tetraacetic acid]
KM increase (hDUT [8]; 30 µM EDTA): 2.7 fold
kcat decreased to (hDUT [8]; 100 µM EDTA): 6%
kcat (hDUT [8]; 30 µM EDTA): 3.30 ± 0.26 s⁻¹
kcat (hDUT [8]; 100 µM EDTA): 0.24 ± 0.03 s⁻¹
KM increase (mtDUT [9]): 3.7 fold
ΔG [10]: -8.0 ± 0.9 kcal/mol
ΔH [10]: 4.4 ± 0.3 kcal/mol
−TΔS [10]: -12.5 ± 0.6 kcal/mol
Kd ([10]; apparent): 2530 ± 180 nM
ΔG (EcMutT [11]): -8.4 ± 0.1 kcal/mol
ΔH (EcMutT [11]): -9.7 ± 0.02 kcal/mol
−TΔS (EcMutT [11]): 1.3 ± 0.1 kcal/mol
ΔG (Taq polymerase [12]): -9.8 ± 0.0 kcal/mol
ΔH (Taq polymerase [12]): -6.3 ± 0.7 kcal/mol
−TΔS (Taq polymerase [12]): -3.5 ± 0.7 kcal/mol
Kd (EcMutT [13]): 550 ± 66 nM
Kd (Taq polymerase [14]): 47 nM
Tm (100 µM EDTA) (hDUT [1]; apo hDUT): 58.5 ± 0.1 °C
Kd (hDUT [4]; absence of Mg^2+): 199 nM
Kd (hDUT [4]; [16]): 200 ± 9 nM
ΔG (hDUT [4]; [18]): -9.0 ± 0.0 kcal/mol
ΔH (hDUT [4]; [18]): -11.2 ± 0.4 kcal/mol
−TΔS (hDUT [4]; [18]): 2.2 ± 0.4 kcal/mol
Kd (mtDUT [5]): 78 nM
ΔG (mtDUT [5]; [18]): -9.6 ± 0.2 kcal/mol
ΔH (mtDUT [5]; [18]): -4.2 ± 1.0 kcal/mol
−TΔS (mtDUT [5]; [18]): -5.3 ± 1.2 kcal/mol

Source: paper PMC6843921 (Biomolecules, 2019)
